Experimental data as given in publication PMC12362618, “Development of the First Small-Molecule Inhibitor Targeting Oncostatin M for Treatment of Breast Cancer” (Journal of Medicinal Chemistry, 2025).

How the values were obtained:
gp130 = biological target: T1, gp130 (Homo sapiens, UniProt P40189); assay: Fluorescence quenching check of SMI binding to gp130; settings: data not shown
T1 construct: purchased R&D Systems 671-GP
T1 sequence (P40189 23-619 limits assumed): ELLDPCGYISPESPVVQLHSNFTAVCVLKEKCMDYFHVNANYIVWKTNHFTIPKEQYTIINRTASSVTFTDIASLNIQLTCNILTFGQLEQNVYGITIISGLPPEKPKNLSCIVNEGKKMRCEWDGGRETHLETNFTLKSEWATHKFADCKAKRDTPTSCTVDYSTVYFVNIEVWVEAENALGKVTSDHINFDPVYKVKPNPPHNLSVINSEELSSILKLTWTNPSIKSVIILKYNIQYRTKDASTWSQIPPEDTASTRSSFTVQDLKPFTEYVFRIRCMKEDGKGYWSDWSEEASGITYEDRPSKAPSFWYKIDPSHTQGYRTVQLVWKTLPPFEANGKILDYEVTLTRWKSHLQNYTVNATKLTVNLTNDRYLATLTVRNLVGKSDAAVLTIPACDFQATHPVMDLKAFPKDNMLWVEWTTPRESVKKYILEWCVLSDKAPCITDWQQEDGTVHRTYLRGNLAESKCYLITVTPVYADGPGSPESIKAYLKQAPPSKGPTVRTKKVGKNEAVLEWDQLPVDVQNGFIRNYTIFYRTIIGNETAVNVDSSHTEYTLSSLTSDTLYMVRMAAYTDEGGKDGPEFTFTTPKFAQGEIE

OSM = biological target: T2, OSM (Homo sapiens, UniProt P13725); design: method as in earlier report of the authors (Mass et al.); settings: binds to OSM's site III pocket; ref earlier report of the authors (Mass et al.); read-out: dissociation constant (KD), previously described; cited from earlier work
T2 sequence (P13725 26-252): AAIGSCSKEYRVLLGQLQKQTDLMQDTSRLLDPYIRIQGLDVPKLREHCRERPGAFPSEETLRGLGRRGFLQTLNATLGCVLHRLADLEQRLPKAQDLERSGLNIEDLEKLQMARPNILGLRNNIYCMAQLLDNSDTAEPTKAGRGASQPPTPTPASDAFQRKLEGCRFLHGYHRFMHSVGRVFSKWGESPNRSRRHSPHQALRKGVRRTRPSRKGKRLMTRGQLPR

[1] = test system: OSM-induced pSTAT3 in MDA-MB-231 human breast cancer cells; assay: pSTAT3 ELISA in MDA-MB-231 cells treated with OSM ± SMI; assay type: cell-based; settings: SMI 10 μM, OSM 10 ng/mL, 30 min
Procedure: 2 High-throughput virtual screening identifies three novel compounds capable of interacting with site III of OSM. […] (F) Structure of parent SMI-10. Data are presented as mean ± SD relative to + OSM treatment, analyzed by one-way ANOVA with Tukey’s posttest *p < 0.05, **p < 0.01. To test the effect of SMIs in vitro, each SMI was incubated with OSM for a period of 1 h at 37 °C, and T47D and MDA-MB-231 human breast cancer cell lines were subsequently treated with OSM (10 ng/mL) and/or SMI-10 (10 μM) analogs for 30 min and measured for pSTAT3 levels via ELISA. The results of these assays are presented graphically in Figure and, for T47D cells, in Table as a percentage of reduction from +OSM alone. For phospho-STAT3 (pSTAT3) ELISAs, T47D MDA-MB-231, and MCF-7 cells were seeded in 12- or 24-well plates at 70–75% confluency and allowed to adhere overnight, after which cells were serum-starved with serum-free RPMI-1640 for 4 h. SMIs (10 μM in DMSO or serially diluted to specified concentrations from a 100 mM stock in DMSO) and human recombinant OSM (10 ng/mL; PeproTech; #300–10T-10UG) were incubated in serum-free RPMI-1640 medium for 1 h. After incubation, the SMI-10 analogs or SMI-10B13 and OSM were added to the serum-starved cells for 30 min. Immediately afterward, the cells were lysed using 1x PathScan Sandwich ELISA Lysis Buffer (Cell Signaling Technology; #7018S), collected, and stored at −20 °C. Lysates were analyzed for pSTAT3 levels using either the PathScan Phospho-STAT3 (Tyr705) Sandwich ELISA Antibody Pair kit (Cell Signaling Technology; #7146) or Human/Mouse Phospho-STAT3 (Y705) DuoSet IC ELISA (R&D Systems; DYC4607B), according to manufacture’s protocol. pSTAT3 expression was measured with absorbance at 450 nm and quantified by comparison relative to OSM-induced pSTAT3 levels. To calculate an IC50 for SMI-10B13, a standard curve was generated as described in the DuoSet IC ELISA datasheet to determine the concentration of pSTAT3.

Row | Compound | Binding to gp130 (gp130) | Kd (OSM) | Inhibition of OSM-induced pSTAT3 via ELISA [1]
1 | O=C(O)/C=C/c1cc(-c2ccc3cc[nH]c3c2)c(-c2ccc3cc[nH]c3c2)o1 [SMI-10B13, (E)-3-(4,5-di(1H-Indol-6-yl)furan-2-yl)acrylic Acid] | does not bind to gp130 |  | 
2 | O=C(O)/C=C/c1cc(-c2ccc3c(c2)OCO3)c(-c2ccc3c(c2)OCO3)o1 [SMI-10B, (E)-3-(4,5-Bis(benzo[d][1,3]dioxol-5-yl)furan-2-yl)acrylic acid] |  | < 13 µM | capable of inhibiting OSM-induced pSTAT3
